From ChEMBL document CHEMBL4385653, “Design, synthesis, biological evaluation of benzoyl amide derivatives containing nitrogen heterocyclic ring as potential VEGFR-2 inhibitors” (Bioorg Med Chem, 2019)

What was measured:
MCF7 [1] = test: Induction of apoptosis in human MCF7 cells assessed as late necrotic cells level at 4 uM incubated for 24 hrs by Annexin V-FITC/PI double staining based flow cytometry analysis (reference value: 1.49%); type: functional
MCF7 [2] = test: Induction of apoptosis in human MCF7 cells assessed as late apoptotic cells level at 4 uM incubated for 24 hrs by Annexin V-FITC/PI double staining based flow cytometry analysis (reference value: 10.1%); type: functional
MCF7 [3] = test: Induction of apoptosis in human MCF7 cells assessed as late apoptotic cells level at 4 uM incubated for 12 hrs by Annexin V-FITC/PI double staining based flow cytometry analysis (reference value: 3.1%); type: functional
MCF7 [4] = test: Induction of apoptosis in human MCF7 cells assessed as viable cells level at 4 uM incubated for 24 hrs by Annexin V-FITC/PI double staining based flow cytometry analysis (reference value: 89%); type: functional
MCF7 [5] = test: Induction of apoptosis in human MCF7 cells assessed as late apoptotic cells level at 2 uM incubated for 24 hrs by Annexin V-FITC/PI double staining based flow cytometry analysis (reference value: 10.1%); type: functional
MCF7 [6] = test: Induction of apoptosis in human MCF7 cells assessed as viable cells level at 4 uM incubated for 12 hrs by Annexin V-FITC/PI double staining based flow cytometry analysis (reference value: 89%); type: functional
MCF7 [7] = test: Induction of apoptosis in human MCF7 cells assessed as late necrotic cells level at 4 uM incubated for 36 hrs by Annexin V-FITC/PI double staining based flow cytometry analysis (reference value: 6.88%); type: functional
MCF7 [8] = test: Induction of apoptosis in human MCF7 cells assessed as late apoptotic cells level at 4 uM incubated for 36 hrs by Annexin V-FITC/PI double staining based flow cytometry analysis (reference value: 3.1%); type: functional
MCF7 [9] = test: Induction of apoptosis in human MCF7 cells assessed as early apoptotic cells level at 2 uM incubated for 24 hrs by Annexin V-FITC/PI double staining based flow cytometry analysis (reference value: 6.37%); type: functional
MCF7 [10] = test: Induction of apoptosis in human MCF7 cells assessed as early apoptotic cells level at 8 uM incubated for 24 hrs by Annexin V-FITC/PI double staining based flow cytometry analysis (reference value: 6.37%); type: functional
MCF7 [11] = test: Induction of apoptosis in human MCF7 cells assessed as late necrotic cells level at 8 uM incubated for 24 hrs by Annexin V-FITC/PI double staining based flow cytometry analysis (reference value: 1.49%); type: functional
MCF7 [12] = test: Induction of apoptosis in human MCF7 cells assessed as late necrotic cells level at 2 uM incubated for 24 hrs by Annexin V-FITC/PI double staining based flow cytometry analysis (reference value: 1.49%); type: functional
MCF7 [13] = test: Induction of apoptosis in human MCF7 cells assessed as viable cells level at 4 uM incubated for 24 hrs by Annexin V-FITC/PI double staining based flow cytometry analysis (reference value: 82%); type: functional
MCF7 [14] = test: Induction of apoptosis in human MCF7 cells assessed as late necrotic cells level at 4 uM incubated for 12 hrs by Annexin V-FITC/PI double staining based flow cytometry analysis (reference value: 6.88%); type: functional
MCF7 [15] = test: Induction of apoptosis in human MCF7 cells assessed as viable cells level at 2 uM incubated for 24 hrs by Annexin V-FITC/PI double staining based flow cytometry analysis (reference value: 82%); type: functional
MCF7 [16] = test: Induction of apoptosis in human MCF7 cells assessed as viable cells level at 8 uM incubated for 24 hrs by Annexin V-FITC/PI double staining based flow cytometry analysis (reference value: 82%); type: functional
MCF7 [17] = test: Induction of apoptosis in human MCF7 cells assessed as late necrotic cells level at 4 uM incubated for 24 hrs by Annexin V-FITC/PI double staining based flow cytometry analysis (reference value: 6.88%); type: functional
MCF7 [18] = test: Induction of apoptosis in human MCF7 cells assessed as late apoptotic cells level at 4 uM incubated for 24 hrs by Annexin V-FITC/PI double staining based flow cytometry analysis (reference value: 3.1%); type: functional
MCF7 [19] = test: Induction of apoptosis in human MCF7 cells assessed as early apoptotic cells level at 4 uM incubated for 12 hrs by Annexin V-FITC/PI double staining based flow cytometry analysis (reference value: 1.06%); type: functional
MCF7 [20] = test: Induction of apoptosis in human MCF7 cells assessed as early apoptotic cells level at 4 uM incubated for 24 hrs by Annexin V-FITC/PI double staining based flow cytometry analysis (reference value: 1.06%); type: functional
MCF7 [21] = test: Induction of apoptosis in human MCF7 cells assessed as early apoptotic cells level at 4 uM incubated for 24 hrs by Annexin V-FITC/PI double staining based flow cytometry analysis (reference value: 6.37%); type: functional
MCF7 [22] = test: Induction of apoptosis in human MCF7 cells assessed as early apoptotic cells level at 4 uM incubated for 36 hrs by Annexin V-FITC/PI double staining based flow cytometry analysis (reference value: 1.06%); type: functional
MCF7 [23] = test: Induction of apoptosis in human MCF7 cells assessed as late apoptotic cells level at 8 uM incubated for 24 hrs by Annexin V-FITC/PI double staining based flow cytometry analysis (reference value: 10.1%); type: functional
MCF7 [24] = test: Induction of apoptosis in human MCF7 cells assessed as viable cells level at 4 uM incubated for 36 hrs by Annexin V-FITC/PI double staining based flow cytometry analysis (reference value: 89%); type: functional
[25] = molecular target: Fibroblast growth factor receptor 1 (Homo sapiens, UniProt P11362); test: Inhibition of bFGFR (unknown origin) incubated for 30 mins by enzyme immunoassay
Chain of Fibroblast growth factor receptor 1 (P11362 whole entry): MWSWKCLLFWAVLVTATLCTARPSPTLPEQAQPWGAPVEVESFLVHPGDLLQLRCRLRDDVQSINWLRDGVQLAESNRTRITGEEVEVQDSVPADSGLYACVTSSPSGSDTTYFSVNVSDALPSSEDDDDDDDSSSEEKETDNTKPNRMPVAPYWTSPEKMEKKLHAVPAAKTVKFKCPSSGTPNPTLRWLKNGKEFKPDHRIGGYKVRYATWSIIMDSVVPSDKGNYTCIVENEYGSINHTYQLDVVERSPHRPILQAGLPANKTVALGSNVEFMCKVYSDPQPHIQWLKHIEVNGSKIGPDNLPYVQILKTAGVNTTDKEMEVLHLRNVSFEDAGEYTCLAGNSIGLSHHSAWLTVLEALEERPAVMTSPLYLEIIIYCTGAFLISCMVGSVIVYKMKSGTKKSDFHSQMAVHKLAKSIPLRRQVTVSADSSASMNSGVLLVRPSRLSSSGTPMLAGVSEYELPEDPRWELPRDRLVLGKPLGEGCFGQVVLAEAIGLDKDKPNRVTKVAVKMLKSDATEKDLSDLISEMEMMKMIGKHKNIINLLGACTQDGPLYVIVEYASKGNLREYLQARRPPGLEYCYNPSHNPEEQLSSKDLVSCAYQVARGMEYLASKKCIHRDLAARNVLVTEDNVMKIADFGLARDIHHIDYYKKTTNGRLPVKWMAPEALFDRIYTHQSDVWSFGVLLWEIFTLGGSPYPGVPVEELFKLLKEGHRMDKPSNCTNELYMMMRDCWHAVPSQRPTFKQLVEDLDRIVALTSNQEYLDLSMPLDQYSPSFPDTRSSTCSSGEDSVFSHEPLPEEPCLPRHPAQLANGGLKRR

HepG2 = test: Antiproliferative activity against human HepG2 cells assessed as inhibition of cell proliferation incubated for 48 hrs by MTT assay; type: functional, cell-based; settings: HepG2, 48 h
[26] = molecular target: Vascular endothelial growth factor receptor 2 (Homo sapiens, UniProt P35968); test: Inhibition of VEGFR2 (unknown origin) incubated for 30 mins by enzyme immunoassay
Chain of Vascular endothelial growth factor receptor 2 (P35968 whole entry): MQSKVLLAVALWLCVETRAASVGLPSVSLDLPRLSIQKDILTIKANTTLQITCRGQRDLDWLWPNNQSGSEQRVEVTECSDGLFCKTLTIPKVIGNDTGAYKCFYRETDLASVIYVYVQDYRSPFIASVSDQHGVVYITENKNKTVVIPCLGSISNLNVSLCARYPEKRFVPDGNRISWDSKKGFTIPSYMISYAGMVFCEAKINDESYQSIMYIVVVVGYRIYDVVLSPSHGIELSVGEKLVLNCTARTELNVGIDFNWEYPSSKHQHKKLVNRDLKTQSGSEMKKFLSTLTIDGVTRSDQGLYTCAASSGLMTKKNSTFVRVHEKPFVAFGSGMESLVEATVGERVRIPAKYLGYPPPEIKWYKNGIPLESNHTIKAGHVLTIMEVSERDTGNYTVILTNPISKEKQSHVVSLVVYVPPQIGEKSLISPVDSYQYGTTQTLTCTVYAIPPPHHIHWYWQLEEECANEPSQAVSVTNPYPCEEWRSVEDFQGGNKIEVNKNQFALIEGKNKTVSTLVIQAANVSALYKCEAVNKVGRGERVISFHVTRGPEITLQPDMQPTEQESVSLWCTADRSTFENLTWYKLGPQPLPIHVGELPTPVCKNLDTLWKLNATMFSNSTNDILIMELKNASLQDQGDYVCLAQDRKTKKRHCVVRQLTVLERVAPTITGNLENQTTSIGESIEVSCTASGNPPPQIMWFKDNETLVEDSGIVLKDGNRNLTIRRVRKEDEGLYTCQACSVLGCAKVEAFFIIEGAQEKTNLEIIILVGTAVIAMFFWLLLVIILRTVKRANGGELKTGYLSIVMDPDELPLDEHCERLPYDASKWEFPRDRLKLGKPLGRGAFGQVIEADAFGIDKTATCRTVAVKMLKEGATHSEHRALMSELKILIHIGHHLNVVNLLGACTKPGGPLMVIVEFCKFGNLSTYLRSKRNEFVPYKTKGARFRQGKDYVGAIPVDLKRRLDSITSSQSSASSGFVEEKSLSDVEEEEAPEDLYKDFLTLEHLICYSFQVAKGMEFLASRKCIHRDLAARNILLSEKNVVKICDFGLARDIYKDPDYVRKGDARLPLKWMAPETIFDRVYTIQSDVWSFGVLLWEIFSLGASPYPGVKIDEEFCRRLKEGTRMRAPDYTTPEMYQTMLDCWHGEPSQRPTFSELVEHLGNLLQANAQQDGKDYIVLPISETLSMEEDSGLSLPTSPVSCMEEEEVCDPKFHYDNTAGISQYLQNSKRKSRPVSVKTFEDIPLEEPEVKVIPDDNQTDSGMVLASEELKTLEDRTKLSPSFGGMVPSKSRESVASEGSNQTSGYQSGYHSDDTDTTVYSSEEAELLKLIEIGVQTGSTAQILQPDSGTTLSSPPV

[27] = molecular target: Epidermal growth factor receptor (Homo sapiens, UniProt P00533); test: Inhibition of EGFR (unknown origin) incubated for 30 mins by enzyme immunoassay
Chain of Epidermal growth factor receptor (P00533 whole entry): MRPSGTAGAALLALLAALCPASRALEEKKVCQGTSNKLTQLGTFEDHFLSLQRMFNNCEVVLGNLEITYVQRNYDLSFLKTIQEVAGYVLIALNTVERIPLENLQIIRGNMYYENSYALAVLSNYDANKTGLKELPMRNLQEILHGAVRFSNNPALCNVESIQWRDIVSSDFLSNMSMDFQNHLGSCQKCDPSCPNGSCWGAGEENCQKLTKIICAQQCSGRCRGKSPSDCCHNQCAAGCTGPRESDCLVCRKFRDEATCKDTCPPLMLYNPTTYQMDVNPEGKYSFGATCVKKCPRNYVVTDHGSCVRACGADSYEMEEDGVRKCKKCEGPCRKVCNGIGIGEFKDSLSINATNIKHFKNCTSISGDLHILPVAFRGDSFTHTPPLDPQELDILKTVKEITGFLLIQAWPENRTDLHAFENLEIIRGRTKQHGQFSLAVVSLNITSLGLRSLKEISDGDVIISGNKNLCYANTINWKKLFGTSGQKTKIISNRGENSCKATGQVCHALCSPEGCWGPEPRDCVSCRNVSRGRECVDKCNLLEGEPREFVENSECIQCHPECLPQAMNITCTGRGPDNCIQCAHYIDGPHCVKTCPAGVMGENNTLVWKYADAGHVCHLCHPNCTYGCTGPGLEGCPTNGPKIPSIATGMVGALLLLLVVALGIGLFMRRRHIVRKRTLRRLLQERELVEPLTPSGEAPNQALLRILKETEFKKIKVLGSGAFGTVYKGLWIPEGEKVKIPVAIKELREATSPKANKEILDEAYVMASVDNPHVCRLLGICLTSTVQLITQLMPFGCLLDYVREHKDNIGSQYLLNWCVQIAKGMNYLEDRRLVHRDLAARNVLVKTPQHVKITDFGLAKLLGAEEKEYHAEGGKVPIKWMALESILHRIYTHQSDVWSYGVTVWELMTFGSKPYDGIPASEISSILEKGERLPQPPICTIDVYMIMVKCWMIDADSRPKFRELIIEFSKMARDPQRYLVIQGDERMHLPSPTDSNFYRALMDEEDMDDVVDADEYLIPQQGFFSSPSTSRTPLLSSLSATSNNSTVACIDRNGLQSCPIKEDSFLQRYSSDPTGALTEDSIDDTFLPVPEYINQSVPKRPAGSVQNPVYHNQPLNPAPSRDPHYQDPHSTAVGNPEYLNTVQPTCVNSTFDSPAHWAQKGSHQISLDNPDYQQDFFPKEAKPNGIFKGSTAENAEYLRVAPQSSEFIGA

MCF7 [28] = test: Antiproliferative activity against human MCF7 cells assessed as inhibition of cell proliferation incubated for 48 hrs by MTT assay; type: functional, cell-based; settings: MCF7, 48 h
A549 = test: Antiproliferative activity against human A549 cells assessed as inhibition of cell proliferation incubated for 48 hrs by MTT assay; type: functional, cell-based; settings: A549, 48 h
[29] = Inhibition of PDGFR (unknown origin) incubated for 30 mins by enzyme immunoassay; parameters: species or system Homo sapiens
HeLa = test: Antiproliferative activity against human HeLa cells assessed as inhibition of cell proliferation incubated for 48 hrs by MTT assay; type: functional, cell-based
[30] = Cytotoxicity in HEK293T cells assessed as reduction in cell viability incubated for 48 hrs by MTT assay; type: cell-based, HEK-293T; settings: human

CCCS(=O)(=O)Nc1ccc(F)c(C(=O)c2c[nH]c3ncc(-c4ccc(Cl)cc4)cc23)c1F [VEMURAFENIB]
Activity (MCF7 [1]): 3.53% | Activity (MCF7 [2]): 21.7% | Activity (MCF7 [3]): 13.9% | Activity (MCF7 [4]): 66.4% | Activity (MCF7 [5]): 14.9% | Activity (MCF7 [6]): 70.7% | Activity (MCF7 [7]): 0.853% | Activity (MCF7 [8]): 13.7% | Activity (MCF7 [9]): 8.28% | Activity (MCF7 [10]): 14.4% | Activity (MCF7 [11]): 2.02% | Activity (MCF7 [12]): 2.29% | Activity (MCF7 [13]): 66.7% | Activity (MCF7 [14]): 1.24% | Activity (MCF7 [15]): 74.6% | Activity (MCF7 [16]): 57.2% | Activity (MCF7 [17]): 1.81% | Activity (MCF7 [18]): 16.7% | Activity (MCF7 [19]): 14.2% | Activity (MCF7 [20]): 15.1% | Activity (MCF7 [21]): 8.13% | Activity (MCF7 [22]): 34.7% | Activity (MCF7 [23]): 26.3% | Activity (MCF7 [24]): 50.7%

COc1ccc(-n2cc(NC(=O)c3cccc(NS(=O)(=O)c4ccccc4)c3)cn2)cc1
IC50 [25]: 37 µM | IC50 (HepG2): 35.7 µM | IC50 [26]: 10.4 µM | IC50 [27]: 27 µM | IC50 (MCF7 [28]): 18.7 µM | IC50 (A549): 76.8 µM | IC50 [29]: 38.5 µM | IC50 (HeLa): 42.2 µM

Cc1ccc(-n2cc(NC(=O)c3ccc(NS(=O)(=O)c4ccc(Cl)cc4)cc3)cn2)cc1
IC50 [25]: 16.2 µM | IC50 (HepG2): 9.72 µM | IC50 [26]: 2.88 µM | CC50 at 48 h [30]: 138 µM | IC50 [27]: 12.4 µM | IC50 (MCF7 [28]): 3.99 µM | IC50 (A549): 22 µM | IC50 [29]: 15.8 µM | IC50 (HeLa): 8.01 µM

Cn1cc(NC(=O)c2ccc(NS(=O)(=O)c3ccccc3)cc2)cn1
IC50 [25]: 62.1 µM | IC50 (HepG2): > 100 µM | IC50 [26]: 25.2 µM | IC50 [27]: 36.8 µM | IC50 (MCF7 [28]): 58.7 µM | IC50 (A549): > 100 µM | IC50 [29]: 42.6 µM | IC50 (HeLa): 92.8 µM

Cc1ccc(-n2cc(NC(=O)c3cccc(NS(=O)(=O)c4ccccc4)c3)cn2)cc1
IC50 [25]: 16.2 µM | IC50 (HepG2): 6.05 µM | IC50 [26]: 0.58 µM | CC50 at 48 h [30]: 93.8 µM | IC50 [27]: 9.57 µM | IC50 (MCF7 [28]): 1.69 µM | IC50 (A549): 18.9 µM | IC50 [29]: 15.7 µM | IC50 (HeLa): 3.12 µM

O=C(Nc1cnn(-c2ccccc2)c1)c1cccc(NS(=O)(=O)c2ccccc2)c1
IC50 [25]: 18.2 µM | IC50 (HepG2): 10.1 µM | IC50 [26]: 3.26 µM | CC50 at 48 h [30]: 110 µM | IC50 [27]: 15.4 µM | IC50 (MCF7 [28]): 4.32 µM | IC50 (A549): 26.8 µM | IC50 [29]: 18.6 µM | IC50 (HeLa): 15.3 µM

COc1cccc(-n2cc(NC(=O)c3cccc(NS(=O)(=O)c4ccc(Cl)cc4)c3)cn2)c1
IC50 [25]: 22.2 µM | IC50 (HepG2): 19.6 µM | IC50 [26]: 5.97 µM | CC50 at 48 h [30]: 133 µM | IC50 [27]: 15.6 µM | IC50 (MCF7 [28]): 9.43 µM | IC50 (A549): 44.4 µM | IC50 [29]: 24.4 µM | IC50 (HeLa): 25 µM

COc1ccc(-n2cc(NC(=O)c3ccc(NS(=O)(=O)c4ccc(Cl)cc4)cc3)cn2)cc1
IC50 [25]: 26.5 µM | IC50 (HepG2): 19.1 µM | IC50 [26]: 7.16 µM | IC50 [27]: 16.2 µM | IC50 (MCF7 [28]): 15.6 µM | IC50 (A549): 61 µM | IC50 [29]: 26.5 µM | IC50 (HeLa): 25.2 µM

O=C(Nc1cnn(-c2ccccc2)c1)c1cccc(NS(=O)(=O)c2ccc(Cl)cc2)c1
IC50 [25]: 18.5 µM | IC50 (HepG2): 8.54 µM | IC50 [26]: 2.39 µM | CC50 at 48 h [30]: 120 µM | IC50 [27]: 10.6 µM | IC50 (MCF7 [28]): 3.13 µM | IC50 (A549): 19.3 µM | IC50 [29]: 17.6 µM | IC50 (HeLa): 5.41 µM

COc1cc2c(Nc3ccc(Br)cc3F)ncnc2cc1OCC1CCN(C)CC1 [VANDETANIB]
CC50 at 48 h [30]: 172 µM
